# Assay results: patent publication US12371454B2, “Cyclic peptide compound having Kras inhibitory action” (priority 2019, dated 2025)
# Starred links: 1 amine or outer side, 2 acyl side, 3 side chain; linkers in the order of their positions; H or OH if unused. Positions of bridges follow the written chain, without caps; N, C: chain ends. Non-standard residues stand in square brackets, D forms with d. Residues, ends and D or L forms follow the SMILES beside them. *: point of attachment. hPhe(3-Cl-4-CF3) = N[C@@H](CCc1ccc(C(F)(F)F)c(Cl)c1)C(=O)O; hPhe(3-F,4-CF3) = N[C@@H](CCc1ccc(C(F)(F)F)c(F)c1)C(=O)O; hPhe(4-CF3) = N[C@@H](CCc1ccc(C(F)(F)F)cc1)C(=O)O; NMePhe(4-CN) = CN[C@@H](Cc1ccc(C#N)cc1)C(=O)O; NMePhe(4-Cl) = CN[C@@H](Cc1ccc(Cl)cc1)C(=O)O; X4 = O=C([C@H](Cc1cc(F)cc(Cl)c1)N[*:1])[*:2]; Phe(3-I) = N[C@@H](Cc1cccc(I)c1)C(=O)O; dβ3hPip = O=C(C[C@H]1CCCCN1[*:1])[*:2]; NMeY = CN[C@@H](Cc1ccc(O)cc1)C(=O)O; NMeCha = CN[C@@H](CC1CCCCC1)C(=O)O; NMeF = CN[C@@H](Cc1ccccc1)C(=O)O; NMeD = CN[C@@H](CC(=O)O)C(=O)O; NMeL = CN[C@@H](CC(C)C)C(=O)O; NMeV = CN[C@H](C(=O)O)C(C)C; d(β3hA) = C[C@@H](N)CC(=O)O; NMeS = CN[C@@H](CO)C(=O)O; NMeA = CN[C@@H](C)C(=O)O; NMeAib = CNC(C)(C)C(=O)O; Nle = CCCC[C@H](N)C(=O)O; Piperidide = C1CCN(*)CC1; Ac5c = NC1(C(=O)O)CCCC1; Aze = O=C(O)[C@@H]1CCN1; Cyclobutyl = C1CC(*)C1; CF3 = FC(F)(F)*; Sar = CNCC(=O)O
# Molecular target: T1, Kras and SOS1 (biotin-tagged human Kras loaded with GDP, His-tagged human SOS1) (Homo sapiens, UniProt P01116, G12D)
# T1 construct: made in house; host or cells: E. coli (stated for Kras only)
# Assay: Protein-protein interaction inhibition between Kras and SOS1 (KrasGl2D-SOS PPI) using AlphaScreen
# Format: binding
# Settings: AlphaScreen; biotin-tagged human Kras loaded with GDP, His-tagged human SOS1; read-out: KRAS G12D-SOS PPI IC50
# In short: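 Binding between SOS1 and Kras is detected as bead-proximity luminescence: illuminate Ni-conjugated donors (680 nm), collect 520-620 nm emission from streptavidin-conjugated acceptors; Kras carries biotin and GDP loaded after purification, SOS1 carries a His tag.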
# T1 sequence (P01116 1-188 isoform P01116-2 G12D): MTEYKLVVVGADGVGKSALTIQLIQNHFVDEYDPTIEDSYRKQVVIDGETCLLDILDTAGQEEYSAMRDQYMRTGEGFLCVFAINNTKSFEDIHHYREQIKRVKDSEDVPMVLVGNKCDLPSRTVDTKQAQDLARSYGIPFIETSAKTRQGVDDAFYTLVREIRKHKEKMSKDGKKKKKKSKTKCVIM
row,Structure (SMILES),IC50 [nM]
1,CCCC[C@@H]1NC(=O)[C@H](Cc2cc(F)cc(Cl)c2)NC(=O)CN(C)C(=O)[C@H](Cc2ccc(Cl)cc2)N(C)C(=O)CN(C)C(=O)CN(C)C(=O)[C@H]([C@@H](C)CC)NC(=O)[C@H](CC(C)C)N(C)C(=O)C[C@@H](C(=O)N2CCCCC2)N(C)C(=O)[C@H](CC(C)C)NC(=O)C(C)(C)N(C)C1=O [Compound 202] ([NMeL]I[Sar][Sar][NMePhe(4-Cl)][Sar][X4][Nle][NMeAib]L[NMeD]-Piperidide; lactam N-11),39
2,CC[C@H](C)[C@@H]1NC(=O)[C@H](CC(C)C)N(C)C(=O)C[C@@H](C)NC(=O)[C@H](C(C)C)N(C)C(=O)C2(CCCC2)NC(=O)[C@@H]2CCCN2C(=O)[C@H](CCc2ccc(C(F)(F)F)c(Cl)c2)NC(=O)CN(C)C(=O)[C@H](Cc2ccc(C#N)cc2)N(C)C(=O)CN(C)C(=O)CN(C)C1=O [Compound 564] (cyclo([Ac5c][NMeV][d(β3hA)][NMeL]I[Sar][Sar][NMePhe(4-CN)][Sar][hPhe(3-Cl-4-CF3)]P)),9.6
3,"CC[C@H](C)[C@@H]1NC(=O)[C@H](CC(C)C)N(C)C(=O)C[C@H]2CCCCN2C(=O)[C@H](C(C)C)N(C)C(=O)C2(CCCC2)NC(=O)[C@@H]2CCCN2C(=O)[C@H](CCc2ccc(C(F)(F)F)c(F)c2)NC(=O)CN(C)C(=O)[C@H](CC2CCCCC2)N(C)C(=O)CN(C)C(=O)CN(C)C1=O [Compound 142] (cyclo([Ac5c][NMeV][dβ3hPip][NMeL]I[Sar][Sar][NMeCha][Sar][hPhe(3-F,4-CF3)]P))",38
4,CC[C@H](C)[C@@H]1NC(=O)[C@H](C)N(C)C(=O)C[C@@H](C)NC(=O)[C@H](C(C)C)N(C)C(=O)[C@H](Cc2ccccc2)N(C)C(=O)[C@H](CC(C)C)N(C)C(=O)[C@H](CCc2ccc(C(F)(F)F)cc2)NC(=O)CN(C)C(=O)[C@H](Cc2ccc(Cl)cc2)N(C)C(=O)CN(C)C(=O)[C@@H]2CCN2C1=O [Compound 71] (cyclo([Aze][Sar][NMePhe(4-Cl)][Sar][hPhe(4-CF3)][NMeL][NMeF][NMeV][d(β3hA)][NMeA]I)),150
5,CC[C@H](C)[C@@H]1NC(=O)[C@H](C)N(C)C(=O)C[C@@H](C)NC(=O)[C@H](C(C)C)N(C)C(=O)C2(CCCC2)NC(=O)[C@@H]2CCCN2C(=O)[C@H](CCc2ccc(C(F)(F)F)c(Cl)c2)NC(=O)[C@H]2CCCN2C(=O)[C@H](Cc2ccccc2)N(C)C(=O)[C@@H]2CCCN2C(=O)CN(C)C1=O [Compound 1730] (cyclo([Ac5c][NMeV][d(β3hA)][NMeA]I[Sar]P[NMeF][dP][hPhe(3-Cl-4-CF3)]P)),35
6,CC[C@H](C)[C@@H]1NC(=O)[C@H](CC(C)C)N(C)C(=O)C[C@@H](C(=O)N2CCCCC2)N(C)C(=O)[C@H](C(C)C)N(C)C(=O)C2(CCCC2)NC(=O)[C@@H](C)NC(=O)[C@H](CCc2ccc(C(F)(F)F)c(Cl)c2)NC(=O)CN(C)C(=O)[C@H](CC2CCCCC2)N(C)C(=O)[C@@H]2CCN2C(=O)[C@H](C)N(C)C1=O [Compound 1314] ([NMeL]I[NMeA][Aze][NMeCha][Sar][hPhe(3-Cl-4-CF3)][dA][Ac5c][NMeV][NMeD]-Piperidide; lactam N-11),90
7,CCCC[C@@H]1NC(=O)[C@H](Cc2cccc(I)c2)NC(=O)CN(C)C(=O)[C@H](Cc2ccc(Cl)cc2)N(C)C(=O)CN(C)C(=O)CN(C)C(=O)[C@H]([C@@H](C)CC)NC(=O)[C@H](CC(C)C)N(C)C(=O)C[C@@H](C(=O)N2CCCCC2)N(C)C(=O)[C@H](CC(C)C)NC(=O)[C@H](Cc2ccc(OC(F)(F)F)cc2)N(C)C1=O [Compound 819] ([NMeL]I[Sar][Sar][NMePhe(4-Cl)][Sar][Phe(3-I)][Nle][NMeY](CF3)L[NMeD]-Piperidide; lactam N-11),53
8,CC[C@H](C)[C@@H]1NC(=O)[C@H](CC(C)C)N(C)C(=O)C[C@@H](C(=O)N2CCCCC2)N(C)C(=O)[C@H](COC2CCC2)N(C)C(=O)C2(CCCC2)NC(=O)[C@@H]2CCCN2C(=O)[C@H](CCc2ccc(C(F)(F)F)c(Cl)c2)NC(=O)CN(C)C(=O)[C@H](CC2CCCCC2)N(C)C(=O)CN(C)C(=O)CN(C)C1=O [Compound 585] ([NMeL]I[Sar][Sar][NMeCha][Sar][hPhe(3-Cl-4-CF3)]P[Ac5c][NMeS](Cyclobutyl)[NMeD]-Piperidide; lactam N-11),94
